The values that follow come from patent publication US6643591B1, “Use of computational and experimental data to model organic compound reactivity in cytochrome P450 mediated reactions and to optimize the design of pharmaceuticals” (University of Pittsburgh, priority 1998, dated 2003).

For one data set, the target named is T1, CYP2B6 (Homo sapiens, UniProt P20813).
T1 sequence (P20813 1-491): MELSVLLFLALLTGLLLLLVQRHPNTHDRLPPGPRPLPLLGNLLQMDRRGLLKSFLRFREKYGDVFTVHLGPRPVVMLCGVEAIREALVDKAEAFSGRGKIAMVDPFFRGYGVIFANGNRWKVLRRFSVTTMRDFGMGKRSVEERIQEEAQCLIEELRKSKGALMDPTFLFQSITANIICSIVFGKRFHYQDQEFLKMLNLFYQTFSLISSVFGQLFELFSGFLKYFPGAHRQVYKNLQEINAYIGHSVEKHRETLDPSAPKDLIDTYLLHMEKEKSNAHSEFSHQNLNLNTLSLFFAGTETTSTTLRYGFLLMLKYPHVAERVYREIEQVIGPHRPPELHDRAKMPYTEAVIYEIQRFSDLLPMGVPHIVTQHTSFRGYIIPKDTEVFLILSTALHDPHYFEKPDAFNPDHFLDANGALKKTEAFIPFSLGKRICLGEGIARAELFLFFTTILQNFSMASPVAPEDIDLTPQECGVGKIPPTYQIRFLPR
Kind of data set: in vitro.

The next data set has as its target T2, P450cam (Pseudomonas putida, UniProt P00183).
T2 construct: made in house
Kind of data set: Intramolecular isotope effects with purified P450cam. The note with it: benzylic hydroxylation, -CH2D (d1) substrate. In kind it is in vitro ADME, bacterial. On the procedure: For the intramolecular isotope effect experiments herein, a substrate is chosen that contains at least two symmetrical sites, with at least one site, but not all, isotopically labeled. A single concentration of substrate is incubated with enzyme, and the ratio of labeled to unlabeled compound in the isotopic mixture of products (or the corresponding rates of formation of products) are used to calculate a KIE.
Construction of expression plasmids for P450cam, Pd, and PdR as well as protein expression and purification have been described previously (Shimoji et al. (1998) Biochemistry 37, 8848-52).
Enzyme incubations with monodeuterated toluenes and p-xylene-α-^2H1-α′-^2H1 were performed in triplicate at a single substrate concentration of 0.25 mM. […] The kinetic parameters for metabolism of the substituted toluenes were determined by GC-MS analysis of the M-(dimethylsilyl) derivative of the product benzyl alcohols (see below).

T2 sequence (P00183 2-415): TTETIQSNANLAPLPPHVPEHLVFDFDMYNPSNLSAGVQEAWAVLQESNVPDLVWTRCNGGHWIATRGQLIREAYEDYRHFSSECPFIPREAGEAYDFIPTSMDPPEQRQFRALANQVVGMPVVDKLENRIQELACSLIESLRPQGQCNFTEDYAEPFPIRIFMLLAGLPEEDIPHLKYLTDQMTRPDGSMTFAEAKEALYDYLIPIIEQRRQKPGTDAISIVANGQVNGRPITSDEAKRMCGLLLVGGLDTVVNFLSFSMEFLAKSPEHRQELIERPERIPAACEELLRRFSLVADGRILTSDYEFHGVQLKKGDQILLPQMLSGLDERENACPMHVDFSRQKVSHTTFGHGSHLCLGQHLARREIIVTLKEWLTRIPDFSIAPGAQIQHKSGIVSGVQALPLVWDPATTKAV

Turning to `COc1ccccc1C` [o-Methylanisole, o-methylanisole], the selectivity ratio at CYP2B6 (pH 7.4, Regioselectivity BzH:Arom) came out at 2; on CYP2B6 (pH 7.4, Regioselectivity BzH:ODAlk), 0.52. Take `COc1ccc(C)cc1` [p-Methylanisole, p-methylanisole]: the “Intramolecular KIE (kH/kD)” value at P450cam stood at 4.44.
